# Data taken from ChEMBL document CHEMBL1155271, “Synthesis, crystal structures and antibacterial activity studies of aza-derivatives of phytoalexin from cotton plant--gossypol” (2009).
# Calls of active or inactive are those of the source. The rule behind the calls is not given here.
# Legend:
# Assay type in all cases: functional
# Staphylococcus aureus [1] = assay: Antimicrobial activity against Staphylococcus aureus ATCC 6538 after 18 hrs by twofold dilution technique; details: ATCC 6538, 18 h
# Staphylococcus aureus [2] = assay: Antimicrobial activity against Methicillin susceptible Staphylococcus aureus 213/7 by twofold dilution technique
# [3] = test system: Staphylococcus epidermidis; assay: Antimicrobial activity against Staphylococcus epidermidis ATCC 12228 by twofold dilution technique
# Staphylococcus aureus [4] = assay: Antimicrobial activity against methicillin-resistant Staphylococcus aureus 200/7 by twofold dilution technique
# Enterococcus hirae [5] = assay: Antimicrobial activity against Enterococcus hirae ATCC 10541 at 400 ug after 18 hrs by disk diffusion method; details: for zone of inhibition at 400 µg/disc: ATCC 10541, 18 h, read-out: DIZ
# Micrococcus luteus [6] = assay: Antimicrobial activity against Micrococcus luteus ATCC 10240 by twofold dilution technique
# Staphylococcus aureus [7] = assay: Antimicrobial activity against Staphylococcus aureus ATCC 25923 at 400 ug after 18 hrs by disk diffusion method; details: ATCC 25923, 18 h, read-out: DIZ
# Staphylococcus aureus [8] = assay: Antimicrobial activity against Methicillin susceptible Staphylococcus aureus 237/7 by twofold dilution technique
# Staphylococcus aureus [9] = assay: Antimicrobial activity against Methicillin susceptible Staphylococcus aureus 208/7 by twofold dilution technique
# Staphylococcus aureus [10] = assay: Antimicrobial activity against Methicillin susceptible Staphylococcus aureus 243/7 by twofold dilution technique
# Staphylococcus aureus [11] = assay: Antimicrobial activity against methicillin-resistant Staphylococcus aureus 140/6 by twofold dilution technique
# Staphylococcus aureus [12] = assay: Antimicrobial activity against Staphylococcus aureus ATCC 29213 at 400 ug after 18 hrs by disk diffusion method; details: ATCC 29213, 18 h, read-out: DIZ
# Bacillus cereus [13] = assay: Antimicrobial activity against Bacillus cereus ATCC 11778 after 18 hrs by twofold dilution technique; details: ATCC 11778, 18 h
# Staphylococcus aureus [14] = assay: Antimicrobial activity against Staphylococcus aureus ATCC 25923 after 18 hrs by twofold dilution technique; details: ATCC 25923, 18 h
# Enterococcus hirae [15] = assay: Antimicrobial activity against Enterococcus hirae ATCC 10541 after 18 hrs by twofold dilution technique; details: ATCC 10541, 18 h
# Staphylococcus aureus [16] = assay: Antimicrobial activity against methicillin-resistant Staphylococcus aureus 141/6 by twofold dilution technique
# Staphylococcus aureus [17] = assay: Antimicrobial activity against methicillin-resistant Staphylococcus aureus 144/6 by twofold dilution technique
# Staphylococcus aureus [18] = assay: Antimicrobial activity against methicillin-resistant Staphylococcus aureus 143/6 by twofold dilution technique
# Bacillus subtilis [19] = assay: Antimicrobial activity against Bacillus subtilis ATCC 6633 after 18 hrs by twofold dilution technique; details: ATCC 6633, 18 h
# Micrococcus luteus [20] = assay: Antimicrobial activity against Micrococcus luteus ATCC 9341 after 18 hrs by twofold dilution technique; details: ATCC 9341, 18 h
# Micrococcus luteus [21] = assay: Antimicrobial activity against Micrococcus luteus ATCC 9341 at 400 ug after 18 hrs by disk diffusion method
# Staphylococcus aureus [22] = assay: Antimicrobial activity against methicillin-resistant Staphylococcus aureus 136/6 by twofold dilution technique
# Staphylococcus aureus [23] = assay: Antimicrobial activity against Methicillin susceptible Staphylococcus aureus 206/7 by twofold dilution technique
# Bacillus subtilis [24] = assay: Antimicrobial activity against Bacillus subtilis ATCC 6633 at 400 ug after 18 hrs by disk diffusion method; details: ATCC 6633, 18 h, read-out: DIZ
# Staphylococcus aureus [25] = assay: Antimicrobial activity against Staphylococcus aureus NCTC 4163 at 400 ug after 18 hrs by disk diffusion method; details: NCTC 4163, 18 h, read-out: DIZ
# Staphylococcus aureus [26] = assay: Antimicrobial activity against Methicillin susceptible Staphylococcus aureus 212/7 by twofold dilution technique
# Staphylococcus aureus [27] = assay: Antimicrobial activity against Staphylococcus aureus ATCC 6538 at 400 ug after 18 hrs by disk diffusion method; details: ATCC 6538, 18 h, read-out: DIZ
# Staphylococcus aureus [28] = assay: Antimicrobial activity against methicillin-resistant Staphylococcus aureus 236/7 by twofold dilution technique
# Staphylococcus aureus [29] = assay: Antimicrobial activity against Staphylococcus aureus ATCC 29213 after 18 hrs by twofold dilution technique; details: ATCC 29213, 18 h
# Staphylococcus aureus [30] = assay: Antimicrobial activity against Staphylococcus aureus NCTC 4163 after 18 hrs by twofold dilution technique; details: NCTC 4163, 18 h
# [31] = test system: Staphylococcus epidermidis; assay: Antimicrobial activity against Staphylococcus epidermidis ATCC 12228 at 400 ug after 18 hrs by disk diffusion method; details: ATCC 12228, 18 h, read-out: DIZ
# Staphylococcus aureus [32] = assay: Antimicrobial activity against Methicillin susceptible Staphylococcus aureus 239/7 by twofold dilution technique
# Bacillus cereus [33] = assay: Antimicrobial activity against Bacillus cereus ATCC 11778 at 400 ug after 18 hrs by disk diffusion method; details: ATCC 11778, 18 h, read-out: DIZ
# Staphylococcus aureus [34] = assay: Antimicrobial activity against methicillin-resistant Staphylococcus aureus 146/6 by twofold dilution technique
# Staphylococcus aureus [35] = assay: Antimicrobial activity against methicillin-resistant Staphylococcus aureus 218/7 by twofold dilution technique
# Staphylococcus aureus [36] = assay: Antimicrobial activity against Methicillin susceptible Staphylococcus aureus 207/7 by twofold dilution technique
# Staphylococcus aureus [37] = assay: Antimicrobial activity against Methicillin susceptible Staphylococcus aureus 242/7 by twofold dilution technique
# Micrococcus luteus [38] = assay: Antimicrobial activity against Micrococcus luteus ATCC 10240 at 400 ug after 18 hrs by disk diffusion method; details: ATCC 10240, 18 h, read-out: DIZ
# Staphylococcus aureus [39] = assay: Antimicrobial activity against methicillin-resistant Staphylococcus aureus 217/7 by twofold dilution technique
# Staphylococcus aureus [40] = assay: Antimicrobial activity against Methicillin susceptible Staphylococcus aureus 238/7 by twofold dilution technique
Structure (SMILES),MIC (Staphylococcus aureus [1]),MIC (Staphylococcus aureus [2]),MIC [3],MIC (Staphylococcus aureus [4]),MIC (Micrococcus luteus [6]),zone of inhibition at 400 µg/disc (Staphylococcus aureus [7]),MIC (Staphylococcus aureus [8]),MIC (Staphylococcus aureus [9]),MIC (Staphylococcus aureus [10]),MIC (Staphylococcus aureus [11]),zone of inhibition at 400 µg/disc (Staphylococcus aureus [12]),MIC (Bacillus cereus [13]),MIC (Staphylococcus aureus [14]),MIC (Enterococcus hirae [15]),MIC (Staphylococcus aureus [16]),MIC (Staphylococcus aureus [17]),MIC (Staphylococcus aureus [18]),MIC (Bacillus subtilis [19]),MIC (Micrococcus luteus [20]),diameter of the inhibition zone (DIZ) (Micrococcus luteus [21]),further results
Cc1cc2c(c(O)c1-c1c(C)cc3c(c1O)/C(=C/NCCC(=O)N[C@@H](Cc1c[nH]cn1)C(=O)O)C(=O)C(O)=C3C(C)C)/C(=C/NCCC(=O)N[C@@H](Cc1c[nH]cn1)C(=O)O)C(=O)C(O)=C2C(C)C,25 µg/mL,100 µg/mL,200 µg/mL,100 µg/mL,50 µg/mL,15 mm,50 µg/mL,100 µg/mL,100 µg/mL,100 µg/mL,13 mm,50 µg/mL,50 µg/mL,50 µg/mL,100 µg/mL,100 µg/mL,100 µg/mL,200 µg/mL,50 µg/mL,inactive,zone of inhibition at 400 µg/disc (Enterococcus hirae [5]): 12 mm; MIC (Staphylococcus aureus [22]): 25 µg/mL; MIC (Staphylococcus aureus [23]): 50 µg/mL; zone of inhibition at 400 µg/disc (Bacillus subtilis [24]): 13 mm; zone of inhibition at 400 µg/disc (Staphylococcus aureus [25]): 15 mm; MIC (Staphylococcus aureus [26]): 100 µg/mL; zone of inhibition at 400 µg/disc (Staphylococcus aureus [27]): 15 mm; MIC (Staphylococcus aureus [28]): 50 µg/mL; MIC (Staphylococcus aureus [29]): 25 µg/mL; MIC (Staphylococcus aureus [30]): 50 µg/mL; zone of inhibition at 400 µg/disc [31]: 14 mm; MIC (Staphylococcus aureus [32]): 100 µg/mL; zone of inhibition at 400 µg/disc (Bacillus cereus [33]): 14 mm; MIC (Staphylococcus aureus [34]): 50 µg/mL; MIC (Staphylococcus aureus [35]): 100 µg/mL; MIC (Staphylococcus aureus [36]): 100 µg/mL; MIC (Staphylococcus aureus [37]): 25 µg/mL; zone of inhibition at 400 µg/disc (Micrococcus luteus [38]): 16 mm; MIC (Staphylococcus aureus [39]): 100 µg/mL; MIC (Staphylococcus aureus [40]): 50 µg/mL
Cc1cc2c(C(C)C)c(O)c(O)c(/C=N/N3CCN(CCO)CC3)c2c(O)c1-c1c(C)cc2c(C(C)C)c(O)c(O)c(/C=N/N3CCN(CCO)CC3)c2c1O,25 µg/mL,50 µg/mL,200 µg/mL,50 µg/mL,50 µg/mL,13 mm,25 µg/mL,50 µg/mL,25 µg/mL,50 µg/mL,12 mm,25 µg/mL,50 µg/mL,50 µg/mL,50 µg/mL,50 µg/mL,50 µg/mL,100 µg/mL,50 µg/mL,inactive,diameter of the inhibition zone (DIZ) (Enterococcus hirae [5]): inactive; MIC (Staphylococcus aureus [22]): 50 µg/mL; MIC (Staphylococcus aureus [23]): 25 µg/mL; zone of inhibition at 400 µg/disc (Bacillus subtilis [24]): 12 mm; zone of inhibition at 400 µg/disc (Staphylococcus aureus [25]): 13 mm; MIC (Staphylococcus aureus [26]): 50 µg/mL; zone of inhibition at 400 µg/disc (Staphylococcus aureus [27]): 12 mm; MIC (Staphylococcus aureus [28]): 25 µg/mL; MIC (Staphylococcus aureus [29]): 25 µg/mL; MIC (Staphylococcus aureus [30]): 50 µg/mL; zone of inhibition at 400 µg/disc [31]: 14 mm; MIC (Staphylococcus aureus [32]): 25 µg/mL; zone of inhibition at 400 µg/disc (Bacillus cereus [33]): 12 mm; MIC (Staphylococcus aureus [34]): 50 µg/mL; MIC (Staphylococcus aureus [35]): 50 µg/mL; MIC (Staphylococcus aureus [36]): 50 µg/mL; MIC (Staphylococcus aureus [37]): 12.5 µg/mL; zone of inhibition at 400 µg/disc (Micrococcus luteus [38]): 15 mm; MIC (Staphylococcus aureus [39]): 50 µg/mL; MIC (Staphylococcus aureus [40]): 25 µg/mL
CCCCOCCOCCN/C=C1\C(=O)C(O)=C(C(C)C)c2cc(C)c(-c3c(C)cc4c(c3O)/C(=C/NCCOCCOCCCC)C(=O)C(O)=C4C(C)C)c(O)c21,50 µg/mL,100 µg/mL,> 400 µg/mL,100 µg/mL,200 µg/mL,14 mm,100 µg/mL,100 µg/mL,100 µg/mL,100 µg/mL,13 mm,100 µg/mL,100 µg/mL,100 µg/mL,200 µg/mL,200 µg/mL,100 µg/mL,200 µg/mL,100 µg/mL,inactive,zone of inhibition at 400 µg/disc (Enterococcus hirae [5]): 12 mm; MIC (Staphylococcus aureus [22]): 50 µg/mL; MIC (Staphylococcus aureus [23]): 50 µg/mL; zone of inhibition at 400 µg/disc (Bacillus subtilis [24]): 12 mm; zone of inhibition at 400 µg/disc (Staphylococcus aureus [25]): 14 mm; MIC (Staphylococcus aureus [26]): 200 µg/mL; zone of inhibition at 400 µg/disc (Staphylococcus aureus [27]): 14 mm; MIC (Staphylococcus aureus [28]): 50 µg/mL; MIC (Staphylococcus aureus [29]): 50 µg/mL; MIC (Staphylococcus aureus [30]): 100 µg/mL; zone of inhibition at 400 µg/disc [31]: 12 mm; MIC (Staphylococcus aureus [32]): 100 µg/mL; zone of inhibition at 400 µg/disc (Bacillus cereus [33]): 12 mm; MIC (Staphylococcus aureus [34]): 100 µg/mL; MIC (Staphylococcus aureus [35]): 100 µg/mL; MIC (Staphylococcus aureus [36]): 100 µg/mL; MIC (Staphylococcus aureus [37]): 50 µg/mL; zone of inhibition at 400 µg/disc (Micrococcus luteus [38]): 12 mm; MIC (Staphylococcus aureus [39]): 200 µg/mL; MIC (Staphylococcus aureus [40]): 100 µg/mL
COCCN/N=C/c1c(O)c(O)c(C(C)C)c2cc(C)c(-c3c(C)cc4c(C(C)C)c(O)c(O)c(/C=N/NCCOC)c4c3O)c(O)c12,50 µg/mL,50 µg/mL,400 µg/mL,50 µg/mL,100 µg/mL,15 mm,100 µg/mL,50 µg/mL,100 µg/mL,50 µg/mL,14 mm,50 µg/mL,50 µg/mL,100 µg/mL,100 µg/mL,100 µg/mL,50 µg/mL,400 µg/mL,50 µg/mL,inactive,zone of inhibition at 400 µg/disc (Enterococcus hirae [5]): 11 mm; MIC (Staphylococcus aureus [22]): 100 µg/mL; MIC (Staphylococcus aureus [23]): 50 µg/mL; zone of inhibition at 400 µg/disc (Bacillus subtilis [24]): 13 mm; zone of inhibition at 400 µg/disc (Staphylococcus aureus [25]): 14 mm; MIC (Staphylococcus aureus [26]): 100 µg/mL; zone of inhibition at 400 µg/disc (Staphylococcus aureus [27]): 13 mm; MIC (Staphylococcus aureus [28]): 100 µg/mL; MIC (Staphylococcus aureus [29]): 50 µg/mL; MIC (Staphylococcus aureus [30]): 100 µg/mL; zone of inhibition at 400 µg/disc [31]: 15 mm; MIC (Staphylococcus aureus [32]): 100 µg/mL; zone of inhibition at 400 µg/disc (Bacillus cereus [33]): 13 mm; MIC (Staphylococcus aureus [34]): 100 µg/mL; MIC (Staphylococcus aureus [35]): 100 µg/mL; MIC (Staphylococcus aureus [36]): 50 µg/mL; MIC (Staphylococcus aureus [37]): 50 µg/mL; zone of inhibition at 400 µg/disc (Micrococcus luteus [38]): 14 mm; MIC (Staphylococcus aureus [39]): 100 µg/mL; MIC (Staphylococcus aureus [40]): 50 µg/mL
